One data set has as its system plasma protein. Conditions: cited from earlier work.
Data set [1] has as its system α-acid glycoprotein (AAG). As to the kind of experiment: Binding constant (Ka) of the drug to alpha-acid glycoprotein. Also noted: species or system human.
In data set [2] the test system is normal human serum proteins. The note with it: 5 min, 1 μM.
Method: To one part of serum sample two parts of MeOH were added, mixed and centrifuged at 16,100 g for 30 min. The supernatant was recovered and can be stored for at least 2 weeks at −20° C. prior to assay. 60 μl is used for the cuvette assay or 24 μl is used for the plate reader assay. Six serial dilutions 1:2 to 1:120 of the extracts, obtained from analyte samples were prepared prior to assay. Methanol extract of normal dog serum without inhibitor was used for the dilution.
For the plate reader assay, the following conditions were used: The buffer was prepared of 50 mM Sodium acetate (NaOAc), pH 4.5, 2 mM dithiothreitol (DTT), 20 mM Sodium Chloride (NaCl), 0.01% Tween 20. The substrate was present at a final concentration of 20 μM in the above buffer. The substrate used is based on a natural substrate for HIV protease. It contains a portion (P4-P4′) of the p17-p24 gag protein. […] The enzyme, wild type HIV-1 protease, was present in the above buffer (50 mM NaOAc, pH4.5, 2 mM DTT, 200 mM NaCl), 0.01% Tween 20) at a final concentration of 4-5 nM. It should be appreciated that other forms of HIV protease can be used as well, including mutant forms of the protease.
The assay is performed at room temperature (RT). […] The reaction was started by adding 88 μl buffer containing substrate and the increase of fluorescence was monitored over time (FIG. 2). […]

For `CC(C)(C)NC(=O)[C@@H]1C[C@@H]2CCCC[C@@H]2CN1C[C@@H](O)[C@H](Cc1ccccc1)NC(=O)[C@H](CC(N)=O)NC(=O)c1ccc2ccccc2n1` [saquinavir], the plasma protein bound in the data set on plasma protein is 90-99%.

`CC(C)(C)NC(=O)[C@@H]1CN(Cc2cccnc2)CCN1C[C@@H](O)C[C@@H](Cc1ccccc1)C(=O)N[C@H]1c2ccccc2C[C@H]1O` [IDV, indinavir]: the “Ka for AAG binding” value in data set [1] is “No binding”.

Regarding `CC(C)CN(C[C@@H](O)[C@H](Cc1ccccc1)NC(=O)[C@H](CC(N)=O)NC(=O)c1ccc2ccccc2n1)C(=O)NC(C)(C)C` [SC-52151], the “Ka for AAG binding” value in data set [1] is on record as 2.3 10^6 M^−1. Besides, the “Free/total drug ratio (%), percentage of HIV protease inhibitor in sample not bound to proteins” value in data set [2] was 10.5%.

The values above are taken from patent US7320878B2, “Protease assay for therapeutic drug monitoring” (Tibotec Pharmaceuticals, Ltd., priority 2001, dated 2008).
